Test systems include SN12C renal; HT29 colon; OVCAR-5 ovarian; SNB-75 CNS; SW-620 colon; NCI-H226 lung; NCI-H460 lung; CCRF-CEM leukemia; COLO 205 colon; NCI/ADR-RES ovarian.
What all share (assay): NCI anticancer screen, dose series, 48 h

The structures appear in SMILES notation.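 Five concentrations, 48 hours, 96-well plates. Here, GI50 denotes the concentration required for 50% inhibition of growth. TGI marks complete inhibition of growth.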

Consider `Cc1nc(C(=O)OCc2ccccc2)cc(OCc2ccccc2)c1C`, for which the GI50 in the assay with SN12C renal was 17.5 µM; in the assay with HT29 colon, 13.1 µM; in the assay on OVCAR-5 ovarian it was 21.8 µM; with SNB-75 CNS it was 17.5 µM; in the assay with SW-620 colon it was 17.8 µM; in the assay with NCI-H226 lung it was 19.1 µM. For the same compound, the GI50 in the assay with NCI-H460 lung is 22.7 µM; in the assay with CCRF-CEM leukemia it was 20.5 µM; in the assay on COLO 205 colon, 22.6 µM; with NCI/ADR-RES ovarian, 14.1 µM. In addition, the TGI in the assay on SN12C renal came to 35.4 µM; in the assay on HT29 colon it was 29.3 µM; in the assay on OVCAR-5 ovarian it was 51.6 µM; in the assay on SNB-75 CNS it was 39.4 µM; with SW-620 colon it was 44.2 µM; with NCI-H226 lung it was 46.9 µM. Further, the TGI with NCI-H460 lung stood at 54.5 µM; in the assay on CCRF-CEM leukemia, 62.1 µM; in the assay with COLO 205 colon it was 65.1 µM; with NCI/ADR-RES ovarian, 37.4 µM.

In the case of `O=C(OCC1=CC(=O)c2ccccc2C1=O)c1ccccc1`, the GI50 in the assay with SN12C renal is 15.1 µM; in the assay on HT29 colon it was 8.13 µM; in the assay with OVCAR-5 ovarian, 24.1 µM; in the assay with SNB-75 CNS it was 14.7 µM; with SW-620 colon it was 4.89 µM; with NCI-H226 lung, 14.1 µM. Besides, the GI50 with NCI-H460 lung was 1.99 µM; in the assay with CCRF-CEM leukemia it was 6.73 µM; in the assay on COLO 205 colon, 2.74 µM; in the assay with NCI/ADR-RES ovarian, 21.7 µM. Also, the TGI came out at 28.5 µM with SN12C renal; 37.7 µM in the assay on HT29 colon; 41.1 µM in the assay on OVCAR-5 ovarian; 29.4 µM with SNB-75 CNS; 17.5 µM in the assay with SW-620 colon; 31.5 µM in the assay with NCI-H226 lung. For the same compound, the TGI in the assay with NCI-H460 lung amounted to 6.19 µM; in the assay on CCRF-CEM leukemia it was 35.4 µM; in the assay with COLO 205 colon it was 10.7 µM; in the assay with NCI/ADR-RES ovarian, 60.1 µM.

On to `COc1ccc(C2=NNC(c3sc(Cl)nc3Cl)C2)cc1` (stereo not given), for which the GI50 in the assay on SN12C renal was 4.02 µM; in the assay with HT29 colon, 5.12 µM; in the assay with OVCAR-5 ovarian it was 9.21 µM; in the assay on SNB-75 CNS, 36.6 µM; in the assay on SW-620 colon, 4.87 µM; in the assay on NCI-H226 lung, 2.85 µM. Moreover, the GI50 in the assay with NCI-H460 lung was 24.3 µM; with CCRF-CEM leukemia it was 2.75 µM; with COLO 205 colon it was 2.17 µM; in the assay with NCI/ADR-RES ovarian, 10.2 µM. Further, the TGI in the assay with SN12C renal was 16.7 µM; in the assay with HT29 colon it was 18.6 µM; in the assay on OVCAR-5 ovarian, 26.4 µM; in the assay with SNB-75 CNS, above 100 µM; in the assay on SW-620 colon, 23.6 µM; in the assay with NCI-H226 lung it was above 100 µM. In addition, the TGI in the assay with NCI-H460 lung is 75.1 µM; in the assay on CCRF-CEM leukemia, 15.7 µM; with COLO 205 colon, 4.4 µM; with NCI/ADR-RES ovarian it was above 100 µM.

Take `COc1ccc2c(CN3CCCC[C@H]3O)cc3cc4c(cc3c2c1)OCO4`: the GI50 in the assay with SN12C renal was 0.326 µM; with HT29 colon, 0.274 µM; in the assay with OVCAR-5 ovarian it was 0.489 µM; in the assay with SNB-75 CNS, 0.5 µM; in the assay on SW-620 colon, 0.31 µM; with NCI-H226 lung, 0.251 µM. Moreover, the GI50 in the assay on NCI-H460 lung was 0.295 µM; in the assay on CCRF-CEM leukemia, 0.528 µM; with COLO 205 colon, 0.185 µM; in the assay on NCI/ADR-RES ovarian it was 0.435 µM. The TGI with SN12C renal stood at 4.06 µM; in the assay on HT29 colon it was 1.93 µM; in the assay with OVCAR-5 ovarian, 14.1 µM; in the assay on SNB-75 CNS it was 1.86 µM; in the assay on SW-620 colon it was 4.65 µM; in the assay with NCI-H226 lung, 0.589 µM. The TGI with NCI-H460 lung came to 10.4 µM; in the assay on CCRF-CEM leukemia, 4.07 µM; in the assay on COLO 205 colon it was 1.36 µM; in the assay on NCI/ADR-RES ovarian, 6.94 µM.

As for `CN(Cc1cnc2nc(N)nc(N)c2n1)c1c(Cl)cc(C(=O)NC(CCC(=O)O)C(=O)O)cc1Cl` (stereo not given), the GI50 with SN12C renal is below 0.01 µM; in the assay on HT29 colon it was below 0.01 µM; in the assay on OVCAR-5 ovarian it was 1.76 µM; in the assay with SNB-75 CNS, 0.173 µM; in the assay on SW-620 colon it was below 0.01 µM; in the assay on NCI-H226 lung, 0.0745 µM. Also, the GI50 with NCI-H460 lung was below 0.01 µM; in the assay with CCRF-CEM leukemia it was below 0.01 µM; in the assay with COLO 205 colon, 0.08 µM; with NCI/ADR-RES ovarian it was below 0.01 µM. Moreover, the TGI with SN12C renal, with HT29 colon, with OVCAR-5 ovarian, in the assay on SNB-75 CNS, in the assay on SW-620 colon and in the assay on NCI-H226 lung was above 100 µM each time. Further, the TGI in the assay with NCI-H460 lung, in the assay with CCRF-CEM leukemia, in the assay on COLO 205 colon and in the assay on NCI/ADR-RES ovarian was above 100 µM throughout.

As to `BrCc1ccc2ccc3ccc(CBr)nc3c2n1`, the TGI turned out to be 4.55 µM with SN12C renal; 4.61 µM in the assay with HT29 colon; 27.1 µM in the assay on OVCAR-5 ovarian; 6.69 µM in the assay with SNB-75 CNS; 5.86 µM in the assay on SW-620 colon; 15 µM with NCI-H226 lung. Besides, the TGI with NCI-H460 lung is 20.2 µM; in the assay on CCRF-CEM leukemia, 3.75 µM; in the assay with COLO 205 colon it was 4.3 µM; in the assay with NCI/ADR-RES ovarian, 5.15 µM.

As for `C[C@]12CCC3c4ccc(O)cc4CCC3C1CC[C@@H]2NC(=O)/C=C/c1ccc(O)c(O)c1` (stereo not given in full), the GI50 is 13.4 µM in the assay with SN12C renal; 3.97 µM in the assay on HT29 colon; 18.1 µM in the assay with OVCAR-5 ovarian; 2.66 µM in the assay with SNB-75 CNS; 15.9 µM in the assay on SW-620 colon; 12.3 µM with NCI-H226 lung. The GI50 with NCI-H460 lung is 11.9 µM; in the assay with CCRF-CEM leukemia, 3.2 µM; with COLO 205 colon, 13.1 µM; in the assay on NCI/ADR-RES ovarian it was 16.2 µM. For the same compound, the TGI in the assay with SN12C renal was found to be 34.2 µM; in the assay on HT29 colon, 15.4 µM; in the assay with OVCAR-5 ovarian it was 35.9 µM; in the assay on SNB-75 CNS it was 9.36 µM; with SW-620 colon it was 45 µM; in the assay with NCI-H226 lung, 37.9 µM. Besides, the TGI in the assay with NCI-H460 lung was determined as 35.3 µM; in the assay with CCRF-CEM leukemia it was 30 µM; in the assay on COLO 205 colon, 32.9 µM; in the assay on NCI/ADR-RES ovarian, 41.7 µM.

For `C=C1C(=O)O[C@@H]2C[C@@H](C)[C@@H]3C=CC(=O)[C@@]3(C)[C@@H](OC(=O)CCCC(=O)O[C@H]3[C@@H]4C(=C)C(=O)O[C@@H]4C[C@@H](C)[C@@H]4C=CC(=O)[C@]43C)[C@H]12`, the TGI in the assay with SN12C renal stood at 0.0938 µM; in the assay on HT29 colon, 0.152 µM; in the assay with OVCAR-5 ovarian it was 0.387 µM; in the assay with SNB-75 CNS it was 0.482 µM; with SW-620 colon it was 0.0432 µM; in the assay on NCI-H226 lung it was 1.35 µM. Besides, the TGI amounted to 0.955 µM with NCI-H460 lung, 1.45 µM in the assay with CCRF-CEM leukemia, 0.111 µM with COLO 205 colon and 4.12 µM in the assay with NCI/ADR-RES ovarian.
